# Laboratory results taken from PubChem BioAssay AID248 (DTP/NCI, 2004).
# Values joined by “and” are separate entries in the source; they are usually repeats but may differ in a detail not shown here. Equal entries are not always repeated. Inconclusive results and toxic doses are left out.
# Tested on: L1210 leukemia ip in BDF1 mice, survival T/C
# Assay: NCI In Vivo Anticancer Drug Screen. Data for tumor model L1210 Leukemia (intraperitoneal) in B6D2F1 (BDF1) mice
# Settings: higher = longer survival
# Outline: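 Transplantable tumor model; survival measured in treated vs vehicle control mice. Value = treated/control.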
# [1] = endpoint: mean survival time, dose: 100.0 mg/kg/injection, schedule: Q01DX001 (ip), vehicle: saline
# [2] = endpoint: mean survival time, dose: 200.0 mg/kg/injection, schedule: Q01DX001 (ip), vehicle: saline
# [3] = endpoint: mean survival time, dose: 400.0 mg/kg/injection, schedule: Q01DX001 (ip), vehicle: saline
# [4] = endpoint: mean survival time, dose: 100.0 mg/kg/injection, schedule: Q01DX001 (ip), vehicle: saline with Tween-80
# [5] = endpoint: mean survival time, dose: 100.0 mg/kg/injection, schedule: Q04DX002 (ip), vehicle: saline
# [6] = endpoint: mean survival time, dose: 200.0 mg/kg/injection, schedule: Q04DX002 (ip), vehicle: saline
# [7] = endpoint: mean survival time, dose: 100.0 mg/kg/injection, schedule: Q04DX003 (ip), vehicle: Klucel (hydroxypropylcellulose) (HPC)
# [8] = endpoint: mean survival time, dose: 200.0 mg/kg/injection, schedule: Q04DX003 (ip), vehicle: Klucel (hydroxypropylcellulose) (HPC)
# [9] = endpoint: mean survival time, dose: 400.0 mg/kg/injection, schedule: Q04DX003 (ip), vehicle: Klucel (hydroxypropylcellulose) (HPC)
# [10] = endpoint: mean survival time, dose: 100.0 mg/kg/injection, schedule: Q04DX003 (ip), vehicle: saline with Tween-80
# [11] = endpoint: mean survival time, dose: 200.0 mg/kg/injection, schedule: Q04DX003 (ip), vehicle: saline with Tween-80
structure (smiles),measurement,setting,value
COc1cc([C@@H]2c3cc4c(c(O)c3C[C@H]3COC(=O)[C@@H]32)OCO4)cc(OC)c1OC,T/C,"endpoint: mean survival time, dose: 0.06 mg/kg/injection, schedule: Q01DX Z (ip), vehicle: saline",100 % of control
same,T/C,"endpoint: mean survival time, dose: 0.12 mg/kg/injection, schedule: Q01DX Z (ip), vehicle: saline",103 % of control
same,T/C,"endpoint: mean survival time, dose: 0.25 mg/kg/injection, schedule: Q01DX Z (ip), vehicle: saline",113 % of control
same,T/C,"endpoint: mean survival time, dose: 0.5 mg/kg/injection, schedule: Q01DX Z (ip), vehicle: saline",116 % of control
same,T/C,"endpoint: mean survival time, dose: 1.0 mg/kg/injection, schedule: Q01DX Z (ip), vehicle: saline",99 % of control
same,T/C,"endpoint: mean survival time, dose: 1.5 mg/kg/injection, schedule: Q01DX Z (ip), vehicle: saline",115 % of control
same,T/C,"endpoint: mean survival time, dose: 2.25 mg/kg/injection, schedule: Q01DX Z (ip), vehicle: saline",108 % of control
same,T/C,"endpoint: mean survival time, dose: 28.0 mg/kg/injection, schedule: Q01DX001 (ip), vehicle: saline",102 % of control
same,T/C,"endpoint: mean survival time, dose: 45.0 mg/kg/injection, schedule: Q01DX001 (ip), vehicle: saline",122 % of control
same,T/C,"endpoint: mean survival time, dose: 50.0 mg/kg/injection, schedule: Q01DX001 (ip), vehicle: saline",101 % of control
same,T/C,"endpoint: mean survival time, dose: 65.0 mg/kg/injection, schedule: Q01DX001 (ip), vehicle: saline",111 % of control
same,T/C,[1],112 % of control
same,T/C,[2],112 % of control
same,T/C,[3],117 % of control
same,T/C,"endpoint: median survival time, dose: 0.25 mg/kg/injection, schedule: Q01DX009 (ip), vehicle: Klucel (hydroxypropylcellulose) (HPC)",100 % of control
same,T/C,"endpoint: median survival time, dose: 0.5 mg/kg/injection, schedule: Q01DX009 (ip), vehicle: Klucel (hydroxypropylcellulose) (HPC)",100 % of control
same,T/C,"endpoint: median survival time, dose: 1.0 mg/kg/injection, schedule: Q01DX009 (ip), vehicle: Klucel (hydroxypropylcellulose) (HPC)",100 % of control
same,T/C,"endpoint: median survival time, dose: 2.0 mg/kg/injection, schedule: Q01DX009 (ip), vehicle: Klucel (hydroxypropylcellulose) (HPC)",100 % of control
CCCCCCCCN(C)Cc1cc(C(C)(C)C)cc(-c2ccccc2)c1O,T/C,[4],94 % of control
same,T/C,"endpoint: mean survival time, dose: 200.0 mg/kg/injection, schedule: Q01DX001 (ip), vehicle: saline with Tween-80",90 % of control
same,T/C,"endpoint: mean survival time, dose: 400.0 mg/kg/injection, schedule: Q01DX001 (ip), vehicle: saline with Tween-80",92 % of control
N/C(=N/N=C/c1ccccc1O)N/N=C\c1ccccc1O,T/C,"endpoint: mean survival time, dose: 15.0 mg/kg/injection, schedule: Q01DX Z (ip), vehicle: carboxymethylcellulose (CMC)",93 % of control
same,T/C,"endpoint: mean survival time, dose: 30.0 mg/kg/injection, schedule: Q01DX Z (ip), vehicle: carboxymethylcellulose (CMC)",92 % of control
same,T/C,"endpoint: mean survival time, dose: 60.0 mg/kg/injection, schedule: Q01DX Z (ip), vehicle: carboxymethylcellulose (CMC)",97 % of control and 89 % of control
same,T/C,"endpoint: mean survival time, dose: 120.0 mg/kg/injection, schedule: Q01DX Z (ip), vehicle: carboxymethylcellulose (CMC)",92 % of control and 100 % of control
same,T/C,"endpoint: mean survival time, dose: 240.0 mg/kg/injection, schedule: Q01DX Z (ip), vehicle: carboxymethylcellulose (CMC)",100 % of control
same,T/C,"endpoint: mean survival time, dose: 240.0 mg/kg/injection, schedule: Q01DX Z (oral), vehicle: carboxymethylcellulose (CMC)",105 % of control
same,T/C,"endpoint: mean survival time, dose: 480.0 mg/kg/injection, schedule: Q01DX Z (ip), vehicle: carboxymethylcellulose (CMC)",94 % of control
same,T/C,"endpoint: mean survival time, dose: 480.0 mg/kg/injection, schedule: Q01DX Z (oral), vehicle: carboxymethylcellulose (CMC)",105 % of control
same,T/C,"endpoint: mean survival time, dose: 960.0 mg/kg/injection, schedule: Q01DX Z (oral), vehicle: carboxymethylcellulose (CMC)",105 % of control
same,T/C,"endpoint: mean survival time, dose: 1920.0 mg/kg/injection, schedule: Q01DX Z (oral), vehicle: carboxymethylcellulose (CMC)",113 % of control
O=C1Nc2ccc(Br)cc2C1=Nc1ccc(Cl)cc1,T/C,"endpoint: mean survival time, dose: 100.0 mg/kg/injection, schedule: Q04DX002 (ip), vehicle: Klucel (hydroxypropylcellulose) (HPC)",95 % of control
same,T/C,"endpoint: mean survival time, dose: 200.0 mg/kg/injection, schedule: Q04DX002 (ip), vehicle: Klucel (hydroxypropylcellulose) (HPC)",92 % of control
same,T/C,"endpoint: mean survival time, dose: 400.0 mg/kg/injection, schedule: Q04DX002 (ip), vehicle: Klucel (hydroxypropylcellulose) (HPC)",89 % of control
COP(=O)(OC)C(O)C(Cl)Cl (configuration not stated),T/C,[5],115 % of control
same,T/C,[6],104 % of control
same,T/C,"endpoint: mean survival time, dose: 400.0 mg/kg/injection, schedule: Q04DX002 (ip), vehicle: saline",104 % of control
Cc1cc2cc3n(c2nn1)N=CCC3,T/C,[5],106 % of control
same,T/C,[6],103 % of control
CCC(CO)Nc1nncc2ccccc12 (configuration not stated),T/C,[1],98 % of control
same,T/C,[2],96 % of control
same,T/C,[3],104 % of control
CC(C)(CNCc1ccco1)[N+](=O)[O-],T/C,"endpoint: mean survival time, dose: 50.0 mg/kg/injection, schedule: Q01DX009 (ip), vehicle: other",103 % of control
same,T/C,"endpoint: mean survival time, dose: 100.0 mg/kg/injection, schedule: Q01DX009 (ip), vehicle: other",95 % of control
same,T/C,"endpoint: mean survival time, dose: 200.0 mg/kg/injection, schedule: Q01DX009 (ip), vehicle: other",106 % of control
OC1c2ccccc2-c2c(F)c(F)c(F)c(F)c21 (configuration not stated),T/C,"endpoint: mean survival time, dose: 50.0 mg/kg/injection, schedule: Q01DX001 (ip), vehicle: carboxymethylcellulose (CMC)",96 % of control
same,T/C,"endpoint: mean survival time, dose: 100.0 mg/kg/injection, schedule: Q01DX001 (ip), vehicle: carboxymethylcellulose (CMC)",97 % of control
same,T/C,"endpoint: mean survival time, dose: 200.0 mg/kg/injection, schedule: Q01DX001 (ip), vehicle: carboxymethylcellulose (CMC)",94 % of control
same,T/C,"endpoint: mean survival time, dose: 400.0 mg/kg/injection, schedule: Q01DX001 (ip), vehicle: carboxymethylcellulose (CMC)",111 % of control
CCCCNC(=O)Nc1cc(C)cc(C)n1,T/C,"endpoint: mean survival time, dose: 100.0 mg/kg/injection, schedule: Q01DX009 (ip), vehicle: Klucel (hydroxypropylcellulose) (HPC)",100 % of control
same,T/C,[7],94 % of control
same,T/C,"endpoint: mean survival time, dose: 200.0 mg/kg/injection, schedule: Q01DX009 (ip), vehicle: Klucel (hydroxypropylcellulose) (HPC)",104 % of control
same,T/C,[8],102 % of control
same,T/C,"endpoint: mean survival time, dose: 400.0 mg/kg/injection, schedule: Q01DX009 (ip), vehicle: Klucel (hydroxypropylcellulose) (HPC)",91 % of control
same,T/C,[9],98 % of control
CN(C)CCCCCO,T/C,"endpoint: mean survival time, dose: 25.0 mg/kg/injection, schedule: Q01DX009 (ip), vehicle: saline with Tween-80",96 % of control
same,T/C,"endpoint: mean survival time, dose: 50.0 mg/kg/injection, schedule: Q01DX009 (ip), vehicle: saline with Tween-80",102 % of control and 87 % of control
same,T/C,"endpoint: mean survival time, dose: 100.0 mg/kg/injection, schedule: Q01DX009 (ip), vehicle: saline with Tween-80",91 % of control
same,T/C,[10],97 % of control
same,T/C,"endpoint: mean survival time, dose: 200.0 mg/kg/injection, schedule: Q01DX009 (ip), vehicle: saline with Tween-80",100 % of control
same,T/C,[11],100 % of control
C#CCOC(=O)c1ccc(C(=O)OCC#C)cc1,T/C,"endpoint: mean survival time, dose: 100.0 mg/kg/injection, schedule: Q01DX009 (ip), vehicle: saline sonified",106 % of control
same,T/C,[7],100 % of control
same,T/C,"endpoint: mean survival time, dose: 200.0 mg/kg/injection, schedule: Q01DX009 (ip), vehicle: saline sonified",96 % of control
same,T/C,[8],106 % of control
same,T/C,[9],90 % of control
COP(=O)(NC(C)=O)OC,T/C,"endpoint: mean survival time, dose: 100.0 mg/kg/injection, schedule: Q04DX002 (ip), vehicle: saline with Tween-80",108 % of control
same,T/C,"endpoint: mean survival time, dose: 200.0 mg/kg/injection, schedule: Q04DX002 (ip), vehicle: saline with Tween-80",102 % of control
same,T/C,"endpoint: mean survival time, dose: 400.0 mg/kg/injection, schedule: Q04DX002 (ip), vehicle: saline with Tween-80",150 % of control
O=c1c(Br)c(-c2ccccc2)nc2ccccn12,T/C,"endpoint: mean survival time, dose: 25.0 mg/kg/injection, schedule: Q01DX001 (ip), vehicle: saline with Tween-80",91 % of control
same,T/C,"endpoint: mean survival time, dose: 50.0 mg/kg/injection, schedule: Q01DX001 (ip), vehicle: saline with Tween-80",91 % of control
same,T/C,[4],95 % of control
CCN(CCCl)CC1C(c2ccccc2)C1c1ccccc1 (configuration not stated),T/C,"endpoint: mean survival time, dose: 25.0 mg/kg/injection, schedule: Q04DX002 (ip), vehicle: Klucel (hydroxypropylcellulose) (HPC)",94 % of control
same,T/C,"endpoint: mean survival time, dose: 50.0 mg/kg/injection, schedule: Q04DX002 (ip), vehicle: Klucel (hydroxypropylcellulose) (HPC)",87 % of control
CCOC(=O)N1C2OC(C(COC(C)=O)=C2COC(C)=O)N1C(=O)OCC,T/C,"endpoint: mean survival time, dose: 12.5 mg/kg/injection, schedule: Q04DX002 (ip), vehicle: saline",99 % of control
same,T/C,"endpoint: mean survival time, dose: 25.0 mg/kg/injection, schedule: Q04DX002 (ip), vehicle: saline",99 % of control
same,T/C,"endpoint: mean survival time, dose: 50.0 mg/kg/injection, schedule: Q04DX002 (ip), vehicle: saline",99 % of control
CCCCCCC(C)O[Si](C)c1ccc(CC)cc1 (configuration not stated),T/C,[10],99 % of control
same,T/C,[11],95 % of control
same,T/C,"endpoint: mean survival time, dose: 400.0 mg/kg/injection, schedule: Q04DX003 (ip), vehicle: saline with Tween-80",103 % of control
OCC1OC(Sc2ncc3cnccn23)C(O)C(O)C1O (configuration not stated),T/C,"endpoint: mean survival time, dose: 100.0 mg/kg/injection, schedule: Q01DX005 (ip), vehicle: saline",100 % of control
same,T/C,"endpoint: mean survival time, dose: 200.0 mg/kg/injection, schedule: Q01DX005 (ip), vehicle: saline",100 % of control
